According to PMC8228537, “Acrylonitrile Derivatives against Trypanosoma cruzi: In Vitro Activity and Programmed Cell Death Study” (Pharmaceuticals, 2021):

Experiments:
[1] = tested on: epimastigotes of Trypanosoma cruzi; test: Mitochondrial membrane potential analysis (JC-1); format: cell-based; conditions: 24 h with the IC90, JC-1, Tukey test, Figure 2
Protocol: The detection of variations in the mitochondrial membrane potential was evaluated with the JC-1 Mitochondrial Membrane Potential Assay Kit® (Cayman Chemical, Ann Arbor, MI, USA). In a 24-well plate, 500 µL of epimastigotes at 10^6 parasites per ml were added with the inhibitory concentration 90 (IC90) of the compounds. After 24 h of incubation at 26 °C, the epimastigotes were centrifuged (3000 rpm, 10 min, 4 °C), resuspended in 50µL of JC-1 buffer and added to a black 96-well plate with 5 µL of JC-1. After 30 min of incubation at 26 °C, the green and red fluorescence were measured using an EnSpire Multimode Plate Reader® (PerkinElmer). Results were expressed in percentage relative to negative control (without treatment) of the ratio 595/535 nm (J-aggregates/J-monomers).

[2] = tested on: epimastigotes of Trypanosoma cruzi; test: ATP level analysis (CellTiter-Glo); format: cell-based; conditions: 24 h with the IC90, CellTiter-Glo, Figure 3
Protocol: Variations in the level of ATP were measured with the CellTiter-Glo® Luminescent Cell Viability Assay (Promega, WI, USA). […] Then, in a white 96-well plate, the epimastigotes were resuspended in 25µL of culture media and mixed with 25 µL of the kit. After 10 min of incubation at room temperature, the luminescence was measured using an EnSpire Multimode Plate Reader® (PerkinElmer). The results were expressed in percentage of production of ATP level relative to the negative control (without any treatment).

[3] = Cytotoxicity, alamarBlue, murine macrophages; format: cell-based; conditions: mouse, J774A.1 murine macrophage cell line, J774A.1 murine macrophages, mean ± SD
Protocol: (§1) The cytotoxicity was evaluated against murine macrophages (J774A.1) using the same method mentioned in the antiparasitic assay, based on the alamarBlue Cell Viability Reagent®. In a sterile 96-well plate, 10^4 cells per well were added, then, after the complete adhesion, serial dilutions of the 32 compounds, using a deep well plate, and a 10% of alamarBlue® were joined.

[4] = tested on: epimastigote stage of T. cruzi; test: Antiparasitic activity, alamarBlue, epimastigotes; format: cell-based, Trypanosoma cruzi; conditions: for Selectivity index (SI): ratio of CC50 for J774A.1 and IC50 for epimastigotes of T. cruzi
Protocol: Epimastigotes of Trypanosoma cruzi (Y strain) were used in this study and cultured in liver infusion tryptose (LIT) medium supplemented with 10% of foetal bovine serum (FBS) at 26 °C.
In a sterile 96-well plate, a serial dilution of acrylonitriles was carried out in LIT medium supplemented with 10% FBS with a final volume of 100 µL. Parasites were added to wells to reach a concentration of 10^5 parasites per well. Finally, a 10% of alamarBlue Cell Viability Reagent® (ThermoFisher Scientific, Waltham, MA, USA) was added into each well, and the plate was incubated for 72 h at 26°C.

[5] = tested on: J774A.1 murine macrophage cell line; test: Cytotoxicity, alamarBlue, murine macrophages; format: cell-based; conditions: J774A.1 murine macrophages, 24 h, mean ± SD
Protocol: as §1

Compound	Variations in the mitochondrial membrane potential relative to negative control [1]	Percentage of ATP level relative to untreated control [2]	CC50 at 24 h [3]	IC50 ([4]; epimastigote stage of T. cruzi (Y strain), 72 h, alamarBlue, mean ± SD, NA: not active)	Selectivity index (SI) [4]	CC50 [5]
O=C(Cn1ccnc1[N+](=O)[O-])NCc1ccccc1 [BENZ, benznidazole, reference compound]	decreasing the inter-membrane potential of the mitochondria	18.26%	> 1500 µM	–	–	–
N#CC=CC(=O)N1C(=O)OC[C@H]1c1ccccc1 [Compound Q31, (E)-(R,E)-4-Oxo-4-(2-oxo-4-phenyloxazolidin-3-yl)but-2-enenitrile]	–	–	–	20.38 ± 0.13 µM	0.51	10.4 ± 1.06 µM
N#CC=CC(=O)N1C(=O)OC[C@H]1c1ccccc1 [Compound Q32, (Z)-(R,Z)-4-Oxo-4-(2-oxo-4-phenyloxazolidin-3-yl)but-2-enenitrile]	–	–	–	–	0.78	2.89 ± 0.74 µM
